Measured values from patent US12180226B2, “Spirotricycle RIPK1 inhibitors and methods of uses thereof” (Merck Sharp & Dohme LLC, priority 2021, dated 2024).
Counter-ions that a name gives are not always drawn.

What follows are compounds tested against RIPK1 (recombinant GST-RIPK1 kinase domain, residues 1-327) (Homo sapiens (Human), UniProt Q13546) (assay: RIPK1-ADP-Glo Enzymatic Assay). Details: ADP-Glo; 25 nM GST-RIPK1, 300 μM ATP; assay lower limit ~25 nM; read-out: RIPK1 V0 Ec50.
Format: biochemical
Summary of the method: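 Enzyme from baculovirus-infected Sf21 cells, 25 nM final, was pre-incubated 30 min at ambient temperature with compound (ten-point, 1:3 dilution from 100000 nM, 1% DMSO), then reacted 150 min with 300 μM ATP and 3 μM dephosphorylated MBP. ADP was read by luminescence; EC50 from four-parameter fit.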

Chain of RIPK1 (recombinant GST-RIPK1 kinase domain, residues 1-327) (Q13546 1-327): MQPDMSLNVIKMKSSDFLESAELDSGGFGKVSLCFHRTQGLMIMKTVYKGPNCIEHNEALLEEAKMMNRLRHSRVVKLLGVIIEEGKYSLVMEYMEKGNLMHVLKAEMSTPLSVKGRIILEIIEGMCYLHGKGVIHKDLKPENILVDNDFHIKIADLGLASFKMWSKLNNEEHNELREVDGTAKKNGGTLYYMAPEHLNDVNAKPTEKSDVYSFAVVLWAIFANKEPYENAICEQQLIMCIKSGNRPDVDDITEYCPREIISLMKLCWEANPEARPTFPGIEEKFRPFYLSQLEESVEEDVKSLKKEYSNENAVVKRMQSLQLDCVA

| EC50 [nM] | Compound |
| --- | --- |
| < 25 | O=C1N2[C@@H](CC[C@H]2c2ccccc2)OC12CCN(c1ncnc3ccnn13)CC2F (single isomer, unassigned) [Example 4.97, (3[R or S],4[S or R], 5′S,7a′R)-3-fluoro-5′-phenyl-1-(pyrazolo [1,5-a][1,3,5]triazin-4-yl)tetrahydro-3′H-spiro[piperidine-4,2′-pyrrolo[2,1-b]oxazol]-3′-one] |
| 40.3 | Cc1ccccc1[C@@H]1CC[C@H]2OC3(CCN(c4ccnc5c(F)cnn45)CC3)C(=O)N21 [Example 4.255, (5′S,7a′R)-1-(3-fluoropyrazolo[1,5-a]pyrimidin-7-yl)-5′-(2-methylphenyl)tetrahydro-3′H-spiro[piperidine-4,2′-pyrrolo[2,1-b] [1,3]oxazol]-3′-one] |
| 88.8 | O=C(c1ccn(C2CC2)n1)N1CCC2(CC1)O[C@@H]1CC[C@@H](c3cc(F)cc(F)c3)N1C2=O [Example 5.52, (5′S,7a′R)-1-(1-cycloprop-yl-1H-pyrazole-3-carbon-yl)-5′-(3,5-difluorophen-yl)tetrahydro-3′H-spiro [piperidine-4,2′-pyrrolo-[2,1-b]oxazol]-3′-one] |
| < 25 | O=C1N2[C@@H](CC[C@H]2c2ccccc2)OC12CCN(c1cc(-c3ccccc3)ncn1)CC2 [Example 4.32, (5′S,7a′R)-5′-phenyl-1-(6-phenylpyrimidin-4-yl)tetrahydro-3′H-spiro[piperidine-4,2′-pyrrolo[2,1-b] [1,3]oxazol]-3′-one] |
| 136 | O=C(c1ccccc1)N1CCC2(CC1)O[C@@H]1[C@@H](O)C[C@@H](c3ccccc3)N1C2=O [Example 6.136] |
| 706 | COc1ccnc(C(=O)N2CCC3(CC2)O[C@@H]2CC[C@@H](c4cc(F)cc(F)c4)N2C3=O)c1 [Example 6.91, (5′S,7a′R)-5′-(3,5-difluorophenyl)-1-(4-methoxypyridine-2-carbonyl)tetrahydro-3′H-spiro[piperidine-4,2′-pyrrolo[2,1-b] [1,3]oxazol]-3′-one] |
| 42.2 | Cn1cccc1C(=O)N1CCC2(CC1)O[C@@H]1CC[C@@H](c3cc(F)cc(F)c3)N1C2=O [Example 5.48, (5′S,7a′R)-5′-(3,5-difluoro-phenyl)-1-(1-methyl-1H-pyrrole-2-carbonyl)tetra-hydro-3′H-spiro[piperidine-4,2′-pyrrolo[2,1-b]oxazol]-3′-one] |
| 25.4 | COC(=O)c1cnc(N2CCC3(CC2)O[C@@H]2CC[C@@H](c4ccccc4)N2C3=O)nc1C [Example 4.189, methyl 4-methyl-2-[(5′S,7a′R)-3′-oxo-5′-phenyltetrahydro-1H,3′H-spiro[piperidine-4,2′-pyrrolo[2,1-b] [1,3]oxazol]-1-yl]pyrimidine-5-carboxylate] |
| 145 | O=C1N2[C@@H](CC[C@H]2c2ccccc2F)OC12CN(c1ccnc(-c3cnn(C(F)F)c3)c1)C2 [Example 4.138, (5′S,7a′R)-1-{2-[1-(difluoromethyl)-1H-pyrazol-4-yl]pyridin-4-yl}-5′-(2-fluorophenyl)tetrahydro-3′H-spiro[azetidine-3,2′-pyrrolo[2,1-b] [1,3]oxazol]-3′-one] |
| < 25 | N#Cc1ccc(F)c(C(=O)N2CCC3(CC2)O[C@@H]2CC[C@@H](c4cccc(F)c4)N2C3=O)c1 [Example 6.130, 4-fluoro-3-[(5′S,7a′R)-5′-(3-fluorophenyl)-3′-oxotetrahydro-1H,3′H-spiro[piperidine-4,2′-pyrrolo[2,1-b][1,3]-oxazole]-1-carbonyl] benzonitrile] |
| 349 | N#Cc1ccc(C(=O)N2CCC3(CC2)O[C@@H]2CC[C@@H](c4ccccc4)N2C3=O)cc1 [Example 6.151, 4-[(5′S,7a′R)-3′-oxo-5′-phenyltetrahydro-1H,3′H-spiro[piperi-dine-4,2′-pyrrolo[2,1-b][1,3]oxazole]-1-carbonyl]benzonitrile] |
| 155 | O=C(c1cn2ccccc2n1)N1CCC2(CC1)O[C@@H]1CC[C@@H](c3cc(F)cc(F)c3)N1C2=O [Example 5.71, (5′S,7a′R)-5′-(3,5-difluoro-phenyl)-1-(imidazo[1,2-a]-pyridine-2-carbonyl)tetra-hydro-3′H-spiro[piperidine-4,2′-pyrrolo[2,1-b]oxazol]-3′-one] |
| 121 | O=C(c1cccc(F)c1)N1CCC2(CC1)O[C@@H]1CC[C@@H](c3ccc(F)cc3)N1C2=O [Example 7.1, (5′S,7a′R)-1-(3-Fluorobenzoyl)-5′-(4-fluorophenyl)tetrahydro-3′H-spiro[piperidine-4,2′-pyrrolo[2,1-b]oxazol]-3′-one] |
| < 25 | COc1cc(N2CCC3(CC2)O[C@@H]2CC[C@@H](c4ccccc4)N2C3=O)ncc1C#N [Example 4.220, 4-methoxy-6-[(5′S,7a′R)-3′-oxo-5′-phenyltetrahydro-1H,3′H-spiro[piperidine-4,2′-pyrrolo[2,1-b] [1,3]oxazol]-1-yl]pyridine-3-carbonitrile] |
| < 25 | O=C1N2[C@@H](CC[C@H]2c2cccc(F)c2)OC12CCN(c1ncnc3ccnn13)CC2 [Example 4.204, (5′S,7a′R)-5′-(3-fluorophenyl)-1-(pyrazolo[1,5-a] [1,3,5]triazin-4-yl)tetrahydro-3′H-spiro[piperidine-4,2′-pyrrolo[2,1-b] [1,3]oxazol]-3′-one] |
| 30.2 | O=C(c1nc2ccccc2s1)N1CCC2(CC1)O[C@@H]1CC[C@@H](c3cc(F)cc(F)c3)N1C2=O [Example 6.28, (5′S,7a′R)-1-(1,3-benzothiazole-2-car-bonyl)-5′-(3,5-difluoro-phenyl)tetrahydro-3′H-spiro[piperidine-4,2′-pyrrolo[2,1-b] [1,3]oxazol]-3′-one] |
| < 25 | O=C(c1nc(N2CCC3(CC2)O[C@@H]2CC[C@@H](c4cc(F)cc(F)c4)N2C3=O)ncc1F)N1CC(F)C1 [Example 7.7, (5′S,7a′R)-5′-(3,5-difluorophenyl)-1-[5-fluoro-4-(3-fluoroazetidine-1-carbonyl)pyrimidin-2-yl]tetrahydro-3′H-spiro[piperidine-4,2′-pyrrolo[2,1-b][1,3]oxazol]-3′-one] |
| 26.9 | O=C1N2[C@@H](CC[C@H]2c2ccccc2F)OC12CN(c1ccnc3ccnn13)C2 [Example 4.108, (5′S,7a′R)-5′-(2-fluorophenyl)-1-(pyrazolo[1,5-a]pyrimidin-7-yl)tetrahydro-3′H-spiro[azetidine-3,2′-pyrrolo[2,1-b]oxazol]-3′-one] |
| 32 | O=C1N2[C@@H](CC[C@H]2c2cc(F)cc(F)c2)OC12CCN(c1ccc(OCC(F)F)c3ccnn13)CC2 [Example 19.4, (5′S,7a′R)-1-(4-(2,2-difluoroethoxy)pyrazolo [1,5-a]pyridin-7-yl)-5′-(3,5-difluorophenyl)tetrahydro-3′H-spiro[piperidine-4,2′-pyrrolo[2,1-b]oxazol]-3′-one, TFA salt] |
| 102 | O=C(c1ccccc1)N1CCC2(CC1)C[C@@H]1OC[C@@H](c3ccccc3)N1C2=O [Example 7.3, (3′R,7a′S)-1-(benzenecarbonyl)-3′-phenyltetrahydro-5′H-spiro[piperidine-4,6′-pyrrolo[2,1-b][1,3]oxazol]-5′-one] |
| 537 | O=C(Nc1ccccc1)N1CCC2(CC1)O[C@@H]1CC[C@@H](c3cc(F)cc(F)c3)N1C2=O [Example 12.1, (5′S,7a′R)-5′-(3,5-Difluorophenyl)-3′-oxo-N-phenyltetrahydro-3′H-spiro[piperidine-4,2′-pyrrolo[2,1-b]oxazole]-1-carboxamide] |
| < 25 | N#Cc1cc(C(=O)N2CCC3(CC2)O[C@@H]2CC[C@@H](c4cccc(F)c4)N2C3=O)ccc1F [Example 6.113, 2-fluoro-5-[(5′S,7a′R)-5′-(3-fluorophenyl)-3′-oxotetrahydro-1H,3′H-spiro[piperidine-4,2′-pyrrolo[2,1-b][1,3]-oxazole]-1-carbonyl] benzonitrile] |
| < 25 | N#Cc1cc(C(=O)N2CCC3(CC2)O[C@@H]2CC[C@@H](c4cc(F)cc(F)c4)N2C3=O)ccc1F [Example 5.14, 5-((5′S,7a′R)-5′-(3,5-difluorophenyl)-3′-oxo-tetrahydro-3′H-spiro [piperidine-4,2′-pyrrolo-[2,1-b]oxazole]-1-carbon-yl)-2-fluorobenzonitrile] |
| 35.7 | O=C1N2[C@@H](CC[C@H]2c2ccccc2)OC12CCN(c1nc3ccccc3o1)CC2 [Example 4.154, (5′S,7a′R)-1-(1,3-benzoxazol-2-yl)-5′-phenyltetrahydro-3′H-spiro[piperidine-4,2′-pyrrolo[2,1-b] [1,3]oxazol]-3′-one] |
| < 25 | O=C(c1c(F)cccc1F)N1CCC2(CC1)O[C@@H]1CC[C@@H](c3cc(F)cc(F)c3)N1C2=O [Example 5.56, (5′S,7a′R)-1-(2,6-difluoro-benzoyl)-5′-(3,5-difluoro-phenyl)tetrahydro-3′H-spiro[piperidine-4,2′-pyrrolo[2,1-b]oxazol]-3'-one] |
| < 25 | O=C1N2[C@@H](CC[C@H]2c2ccccc2)OC12CCN(c1ccc(Cl)c3ncnn13)CC2 [Example 15.3, (5′S,7a′R)-1-(8-chloro-[1,2,4]triazolo[1,5-a]pyridin-5-yl)-5′-phenyltetrahydro-3′H-spiro[piperidine-4,2′-pyrrolo[2,1-b]oxazol]-3′-one, TFA salt] |
| < 25 | O=C(c1ccccc1)N1CCC2(CC1)O[C@@H]1CC[C@@H](c3cc(F)ccc3F)N1C2=O [Example 7.2, (5′S,7a′R)-1-(benzenecarbonyl)-5′-(2,5-difluorophenyl)tetrahydro-3′H-spiro[piperidine-4,2′-pyrrolo[2,1-b][1,3]oxazol]-3′-one] |
| 230 | CCn1nccc1C(=O)N1CCC2(CC1)O[C@@H]1CC[C@@H](c3cc(F)cc(F)c3)N1C2=O [Example 6.37, (5′S,7a′R)-5′-(3,5-difluorophenyl)-1-(1-ethyl-1H-pyrazole-5-carbonyl)tetrahydro-3′H-spiro[piperidine-4,2′-pyrrolo[2,1-b] [1,3]oxazol]-3′-one] |
